From article PMC6315349 (2018)

Legend:
Assay in all cases: fluorescence turn-on
[1] = test system: RNA half adder + AND_DNA inhibitor + XOR_DNA inhibitor (0-0) (DNA:RNA, aptamer) GGUGCCCGCUGACCGGAGACGGUCAAAUAGAGCACAGGAUGGUAACGAAUGACCAGCCCGAGGUCGCGACCUUCUUUUCCCUCGCGACUCGAAAUGUUUCUUUUCGAGGUCGCCCCGUAUCUGUCGAGUAGAGUGUGGGCUCGCACGCGGCUGCC/GGCGGCTGCCGCGCAGAGACGGUCGGGUCCAGAUAUUGGAUCUUUCGCCUUUUCGCGAUACGGGCCAACGAUGGGUUUUGAAGGUCGCGACAAGGGCUGGTCCGACAUCCCACACAAATAGAGTGTGGGCCGAGCAGCGGCACC/GGUGCCCGCUGACCGGAGACGGUCAAAUAGAGCACAGGAUGGUAACGAAUGACCAGCCCGAGGGCGACCUCGUUUUGUACCAGCAUCCUCUUCAUAAGUUUUGGCGAAAGAUCCCGUAUCUGUCGAGUAGAGUGUGGGCUCGCACGCGGCUGCC/GGCGGCUGCCGCGCAGAGACGGUCGGGUCCAGAUAUUGGGCGACCUCGUUUUCCGGGAUAUGGUCUCGGCCAACUUUUCGAGGUCGCCCAAGGGCUGGUCCGACAUCCCACACAAAUAGAGUGUGGGCCGAGCAGCGGCAGC/GGAUGCUGGUACUUUUGUUGGCCGAGACCAUAUCCCGGUUUUGAAACAUUUCGAGUCGCGAGGGUUUUCCCAUCGUUGGCCCGUAUCGCGUUUUCUUAUGAAGA/ATAACAGCGCGTAGGGCCACGCTGCCGCTGCTCGGCCCACACTCTATTTGACCGGGATGTCGGACCAGCTGGTCATTCCTTACCATCCCACACTCTATTTGACCGTCTCCGGTCAGCGGGCAGGCGAGCCCTACGCGCTGTTAT/GGCAGCCGCGTGTGCCGCTGGCTCGGCCACACTCTATTTGACCGTCCGGTGCGAGCTGCGCGGCGAGCCCTA; settings: 22 °C, 1 μM RNA strands, 2 μM each inhibitor, 5 μM dye
[2] = test system: AND gate + AND_input A + AND_input B (1-1) (DNA:RNA, aptamer) GGUUUCAACCUUUGCAAACAUGCUUUGGAUGGUAACGAAUGACCAGCCCGAAAGGGCUGGUCCGACAUCCUUUGGGAAAUCCUUUGGGUGCCGUUU/GTAAGCTTTGGTTGA/AAACAGCGTCCAGAGGAT; settings: 100 mM NaCl, 10 mM MgCl2; 50 mM Tris pH 8.0, 22 °C; 1 μM RNA, 2 μM dye, 2 μM each input; output ON
[3] = test system: NAND gate + NAND input B (0-1) (DNA:RNA, aptamer) GGUUUGCAAACAUGCUUUGGAUGGUAACGAAUGACCAGCCCGAAAGGGCUGGUCCGACAUCCUUUGGGAAAUCCUUU/TTGATTTCCCTTTGGT; settings: 100 mM NaCl, 10 mM MgCl2; 50 mM Tris pH 8.0, 22 °C; 2 μM dye; fluorescence slightly higher than without input
[4] = test system: NAND gate + NAND_input A (1-0) (DNA:RNA, aptamer) GGUUUGCAAACAUGCUUUGGAUGGUAACGAAUGACCAGCCCGAAAGGGCUGGUCCGACAUCCUUUGGGAAAUCCUUU/CTATAGCATGTTTGC; settings: 100 mM NaCl, 10 mM MgCl2; 50 mM Tris pH 8.0, 22 °C; 2 μM dye; fluorescence lower than without input
[5] = test system: AND gate + AND_input A (1-0) (DNA:RNA, aptamer) GGUUUCAACCUUUGCAAACAUGCUUUGGAUGGUAACGAAUGACCAGCCCGAAAGGGCUGGUCCGACAUCCUUUGGGAAAUCCUUUGGGUGCCGUUU/GTAAGCTTTGGTTGA …; settings: 100 mM NaCl, 10 mM MgCl2; 50 mM Tris pH 8.0, 22 °C; 2 μM dye, 2 μM input; output OFF (<60% normalized)
[6] = test system: OR gate + OR_input A + OR_input B (1-1) (DNA:RNA, aptamer) GGUUUCAACCUUUGCAAACAUGCUUUGGAUGGUAACGAAUGACCAGCCCGAAAGGGCUGGUCCGACAUCCUUUGGGAAAUCCUUUGGGUGCCGUUU/GCATGTTTGCAAAGGTTGAAA/AAACGGCGTCCAAAGGATTTCCC; settings: 100 mM NaCl, 10 mM MgCl2; 50 mM Tris pH 8.0, 22 °C; 1 μM RNA, 2 μM dye, 2 μM each input; output ON
[7] = test system: RNA NAND/NOR gate (no inputs, 0-0) (RNA, aptamer) GGUUUGCAAACAUGCUUUGGAUGGUAACGAAUGACCAGCCCGAAAGGGCUGGUCCGACAUCCUUUGGGAAAUCCUUU; settings: 100 mM NaCl, 10 mM MgCl2; 50 mM Tris pH 8.0, 22 °C; 1 μM RNA, 2 μM dye; output ON
[8] = test system: OR gate + OR_input A (1-0) (DNA:RNA, aptamer) GGUUUCAACCUUUGCAAACAUGCUUUGGAUGGUAACGAAUGACCAGCCCGAAAGGGCUGGUCCGACAUCCUUUGGGAAAUCCUUUGGGUGCCGUUU/GCATGTTTGCAAAGGTTGAAA; settings: 100 mM NaCl, 10 mM MgCl2; 50 mM Tris pH 8.0, 22 °C; 1 μM RNA, 2 μM dye, 2 μM each input; output ON
[9] = test system: OR gate + OR_input B (0-1) (DNA:RNA, aptamer) GGUUUCAACCUUUGCAAACAUGCUUUGGAUGGUAACGAAUGACCAGCCCGAAAGGGCUGGUCCGACAUCCUUUGGGAAAUCCUUUGGGUGCCGUUU/AAACGGCGTCCAAAGGATTTCCC; settings: 100 mM NaCl, 10 mM MgCl2; 50 mM Tris pH 8.0, 22 °C; 1 μM RNA, 2 μM dye, 2 μM each input; output ON
[10] = test system: RNA AND/OR gate (no inputs, 0-0) (RNA, aptamer) GGUUUCAACCUUUGCAAACAUGCUUUGGAUGGUAACGAAUGACCAGCCCGAAAGGGCUGGUCCGACAUCCUUUGGGAAAUCCUUUGGGUGCCGUUU; settings: 100 mM NaCl, 10 mM MgCl2; 50 mM Tris pH 8.0, 22 °C; 1 μM RNA, 2 μM dye; output OFF (<60% normalized)
[11] = test system: NAND gate + NAND_input A + NAND input B (1-1) (DNA:RNA, aptamer) GGUUUGCAAACAUGCUUUGGAUGGUAACGAAUGACCAGCCCGAAAGGGCUGGUCCGACAUCCUUUGGGAAAUCCUUU/CTATAGCATGTTTGC/TTGATTTCCCTTTGGT; settings: 100 mM NaCl, 10 mM MgCl2; 50 mM Tris pH 8.0, 22 °C; 2 μM dye; output OFF (<60% normalized)
[12] = test system: NOR gate + NOR_input B (0-1) (DNA:RNA, aptamer) GGUUUGCAAACAUGCUUUGGAUGGUAACGAAUGACCAGCCCGAAAGGGCUGGUCCGACAUCCUUUGGGAAAUCCUUU/AAAGGATTTCCCAAAGGATGTCGGACC; settings: 100 mM NaCl, 10 mM MgCl2; 50 mM Tris pH 8.0, 22 °C; 1 μM RNA, 2 μM dye, 2 μM each input; output OFF
[13] = test system: AND gate + AND_input B (0-1) (DNA:RNA, aptamer) GGUUUCAACCUUUGCAAACAUGCUUUGGAUGGUAACGAAUGACCAGCCCGAAAGGGCUGGUCCGACAUCCUUUGGGAAAUCCUUUGGGUGCCGUUU/AAACAGCGTCCAGAGGAT; settings: 100 mM NaCl, 10 mM MgCl2; 50 mM Tris pH 8.0, 22 °C; 2 μM dye, 2 μM input; output OFF (<60% normalized)
[14] = test system: NOR gate + NOR_input A + NOR_input B (1-1) (DNA:RNA, aptamer) GGUUUGCAAACAUGCUUUGGAUGGUAACGAAUGACCAGCCCGAAAGGGCUGGUCCGACAUCCUUUGGGAAAUCCUUU/CCATCCAAAGCATGTTTGCAAA/AAAGGATTTCCCAAAGGATGTCGGACC; settings: 100 mM NaCl, 10 mM MgCl2; 50 mM Tris pH 8.0, 22 °C; 1 μM RNA, 2 μM dye, 2 μM each input; output OFF
[15] = test system: NOR gate + NOR_input A (1-0) (DNA:RNA, aptamer) GGUUUGCAAACAUGCUUUGGAUGGUAACGAAUGACCAGCCCGAAAGGGCUGGUCCGACAUCCUUUGGGAAAUCCUUU/CCATCCAAAGCATGTTTGCAAA; settings: 100 mM NaCl, 10 mM MgCl2; 50 mM Tris pH 8.0, 22 °C; 1 μM RNA, 2 μM dye, 2 μM each input; output OFF

SMILES | binding ([1]; low fluorescence at 510 nm) | binding [2] | binding [3] | binding [4] | binding [5] | binding [6] | binding [7] | binding [8] | binding [9] | binding [10] | binding [11] | binding [12] | binding ([1]; low fluorescence at 650 nm) | binding [13] | binding [14] | binding [15]
CC1=N/C(=C\c2cc(F)c(O)c(F)c2)C(=O)N1C | no |  |  |  |  |  |  |  |  |  |  |  |  |  |  | 
CN(C)c1ccc(C(=C2C=CC(=[N+](C)C)C=C2)c2ccccc2)cc1 |  | yes | yes | yes | weak | yes | yes | yes | yes | no | weak | no | no | weak | no | no
